Usually IC50 stands for the point on the concentration scale where inhibition reaches its midpoint.

This assay has as its target T1, human IDO1 (Homo sapiens, UniProt P14902).
T1 construct: expressed in transfected cells
The assay is described as follows: HEK Human IDO-1 inhibition assay (kynurenine, Ehrlich reagent, absorbance 490 nm). To be noted: human IDO1/HEK293 cells, 20 hours incubation; read-out: HEK Human IDO-1 Bio Activity (IDO IC50). It is filed as cell-based. Here is the method:
HEK293 cells were transfected with a pCDNA-based mammalian expression vector harboring human IDO1 cDNA (NM 002164.2) by electroporation. They were cultured in medium (DMEM with 10% FBS) containing 1 mg/ml G418 for two weeks. Clones of HEK293 cells that stably expressed human IDO1 protein were selected and expanded for IDO inhibition assay.
The human IDO1/HEK293 cells were seeded at 10,000 cells per 50 μL per well with RPMI/phenol red free media contains 10% FBS in a 384-well black wall clear bottom tissue culture plate (Matrix Technologies LLC) 100 nL of certain concentration of compound was then added to each well using ECHO liquid handling systems. The cells were incubated for 20 hours in 37° C. incubator with 5% CO2.
The compound treatments were stopped by adding trichloroacetic acid (Sigma-Aldrich) to a final concentration at 0.2%. The cell plate was further incubated at 50° C. for 30 minute. The equal volume supernatant (20 μL) and 0.2% (w/v) Ehrlich reagent (4-dimethylaminobenzaldehyde, Sigma-Aldrich) in glacial acetic acid were mixed in a new clear bottom 384-well plate. This plate was then incubated at room temperature for 30 minute. The absorbance at 490 nm was measured on Envision plate reader.
Compound IC50 values were calculated using the counts of 500 nM of a reference standard treatment as one hundred percent inhibition, and counts of no compound but DMSO treatment as zero percent inhibition.

Some results are limits rather than exact numbers.

T1 sequence (P14902 whole entry): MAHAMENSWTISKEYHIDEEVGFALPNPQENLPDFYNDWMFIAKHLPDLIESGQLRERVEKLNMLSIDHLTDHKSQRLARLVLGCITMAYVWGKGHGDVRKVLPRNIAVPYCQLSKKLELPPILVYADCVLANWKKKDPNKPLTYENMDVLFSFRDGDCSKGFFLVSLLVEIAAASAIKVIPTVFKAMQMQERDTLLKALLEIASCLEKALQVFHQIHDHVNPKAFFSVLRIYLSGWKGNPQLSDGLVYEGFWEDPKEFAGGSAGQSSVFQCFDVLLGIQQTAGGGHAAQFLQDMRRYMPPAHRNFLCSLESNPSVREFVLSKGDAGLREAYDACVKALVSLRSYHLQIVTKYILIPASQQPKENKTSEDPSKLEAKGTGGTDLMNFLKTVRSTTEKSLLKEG

On to `C[C@@H](NC(=O)Cc1cccc(Cl)c1)[C@H]1CC[C@@H](c2ccnc3ccc(F)cc32)CC1` [Example 7, 2-(3-chlorophenyl)-N-((R)-1-((1s,4S)-4-(6-fluoroquinolin-4-yl)cyclohexyl)ethyl)acetamide], for which the IC50 was under 1000 nM.

Turning to `C[C@@H](NC(=O)Cc1ccc(Cl)cc1)[C@H]1CC[C@@H](c2ccnc3ccc(F)cc32)CC1` [Example 5, 2-(4-chlorophenyl)-N-((R)-1-((1s,4S)-4-(6-fluoroquinolin-4-yl)cyclohexyl)ethyl)acetamide], the IC50 is under 1000 nM.

With `C[C@@H](NC(=O)C1(c2ccc(Cl)cc2)CCC1)[C@H]1CC[C@@H](c2ccnc3ccc(F)cc32)CC1` [Example 13, 1-(4-chlorophenyl)-N-((R)-1-((1s,4S)-4-(6-fluoroquinolin-4-yl)cyclohexyl)ethyl)-cyclobutanecarboxamide], the half-maximal inhibitory concentration (IC50) was under 100 nM.

With `C[C@@H](NC(=O)Cc1ccccc1Cl)[C@H]1CC[C@@H](c2ccnc3ccc(F)cc32)CC1` [Example 6, 2-(2-chlorophenyl)-N-((R)-1-((1s,4S)-4-(6-fluoroquinolin-4-yl)cyclohexyl)ethyl)acetamide], the IC50 was under 1000 nM.

Consider `C[C@@H](NC(=O)C1CCC1)[C@H]1CC[C@@H](c2ccnc3ccc(F)cc32)CC1` [Example 20, N-((R)-1-((1s,4S)-4-(6-fluoroquinolin-4-yl)cyclohexyl)ethyl)-cyclobutanecarboxamide], for which the IC50 is under 1000 nM.

Regarding `O=C(Cc1ccccc1F)NCC1CCN(c2ccnc3ccc(F)cc23)CC1` [Example 3, 2-(2-Fluorophenyl)-N-((1-(6-fluoroquinolin-4-yl)piperidin-4-yl)methyl)acetamide], the IC50 was under 1000 nM.

In the case of `C[C@@H](NC(=O)C1CCCCC1)[C@H]1CC[C@@H](c2ccnc3ccc(F)cc32)CC1` [Example 15, N-((R)-1-((1s,4S)-4-(6-fluoroquinolin-4-yl)cyclohexyl)ethyl)-cyclohexanecarboxamide], the IC50 was under 100 nM.

Consider `C[C@@H](NC(=O)C12CCC(Cl)(CC1)CC2)[C@H]1CC[C@@H](c2ccnc3ccc(F)cc32)CC1` [Example 14, 4-chloro-N—((R)-1-((cis)-4-(6-fluoroquinolin-4-yl)cyclohexyl)ethyl)bicyclo [2.2.2]octane-1-carboxamide], for which the IC50 is under 100 nM.

With `C[C@@H](NC(=O)C1CC1)[C@H]1CC[C@@H](c2ccnc3ccc(F)cc32)CC1` [Example 16, N-((R)-1-((1s,4S)-4-(6-fluoroquinolin-4-yl)cyclohexyl)ethyl)-cyclopropanecarboxamide], the half-inhibitory concentration (IC50) is under 1000 nM.

For the molecule `CO[C@@H](C(=O)N[C@H](C)[C@H]1CC[C@@H](c2ccnc3ccc(F)cc32)CC1)c1ccccc1` [Example 11], the 50% inhibitory concentration (IC50) is under 100 nM.

Regarding `C[C@@H](C(=O)N[C@H](C)[C@H]1CC[C@@H](c2ccnc3ccc(F)cc32)CC1)c1ccccc1` [Example 9, (R)-N-((R)-1-((1s,4S)-4-(6-fluoroquinolin-4-yl)cyclohexyl)ethyl)-2-phenylpropanamide], the IC50 was under 1000 nM.

For the molecule `C[C@@H](NC(=O)Cc1ccccc1F)[C@H]1CC[C@@H](c2ccnc3ccc(F)cc32)CC1` [Example 12, 2-(2-fluorophenyl)-N-((R)-1-((1s,4S)-4-(6-fluoroquinolin-4-yl)cyclohexyl)ethyl)acetamide], the IC50 was under 1000 nM.

Consider `C[C@@H](NC(=O)[C@H]1CC[C@H](O)CC1)[C@H]1CC[C@@H](c2ccnc3ccc(F)cc32)CC1` [Example 22, (1r,4R)-N-((R)-1-((1s,4S)-4-(6-fluoroquinolin-4-y1)cyclohexyl)ethyl)-4-hydroxycxclohexanecarboxamide], for which the IC50 was under 1000 nM.

`C[C@@H](NC(=O)[C@H]1C[C@H](F)C1)[C@H]1CC[C@@H](c2ccnc3ccc(F)cc32)CC1` [Example 18, (1r,3R)-3-fluoro-N-((R)-1-((1s,4S)-4-(6-fluoroquinolin-4-yl)cyclohexyl)ethyl)-cyclobutanecarboxamide]: the IC50 is under 1000 nM.

In the case of `C[C@@H](NC(=O)[C@H]1C[C@@H](F)C1)[C@H]1CC[C@@H](c2ccnc3ccc(F)cc32)CC1` [Example 19, (1s,3S)-3-fluoro-N-((R)-1-((1s,4S)-4-(6-fluoroquinolin-4-yl)cyclohexyl)ethyl)-cyclobutanecarboxamide], the IC50 was under 1000 nM.

On to `C[C@@H](NC(=O)[C@H]1CC[C@@H](O)CC1)[C@H]1CC[C@@H](c2ccnc3ccc(F)cc32)CC1` [Example 21, (1s,4S)-N-((R)-1-((1s,4S)-4-(6-fluoroquinolin-4-yl)cyclohexyl)ethyl)-4-hydroxycxclohexanecarboxamide], for which the half-inhibitory concentration (IC50) is under 1000 nM.

Take `C[C@@H](CNC(=O)c1ccc(Cl)cc1)[C@H]1CC[C@@H](c2ccnc3ccc(F)cc32)CC1` [Example 4, 4-chloro-N—((R)-2-((cis)-4-(6-fluoroquinolin-4-yl)cyclohexyl)propyl)benzamide]: the IC50 is under 1000 nM.

As for `C[C@@H](NC(=O)C1CC(F)(F)C1)[C@H]1CC[C@@H](c2ccnc3ccc(F)cc32)CC1` [Example 17, 3,3-difluoro-N-((R)-1-((1s,4S)-4-(6-fluoroquinolin-4-yl)cyclohexyl)ethyl)-cyclobutanecarboxamide], the IC50 is under 1000 nM.

With `COc1ccc(CC(=O)N[C@H](C)[C@H]2CC[C@@H](c3ccnc4ccc(F)cc43)CC2)cc1` [Example 10, N-((R)-1-((1s,4S)-4-(6-fluoroquinolin-4-yl)cyclohexyl)ethyl)-2-(4-methoxyphenyl)acetamide], the IC50 is under 1000 nM.

In the case of `O=C(Cc1ccc(F)cc1)NCC1CCN(c2ccnc3ccc(F)cc23)CC1` [Example 2, 2-(4-Fluorophenyl)-N-((1-(6-fluoroquinolin-4-yl)piperidin-4-yl)methyl)acetamide], the IC50 is under 100 nM.

For `Cc1ccc(CC(=O)NCC2CCN(c3ccnc4ccc(F)cc34)CC2)cc1` [Example 1, N-((1-(6-Fluoroquinolin-4-yl)piperidin-4-yl)methyl)-2-(p-tolyl)acetamide], the IC50 is under 100 nM.

Regarding `C[C@H](C(=O)N[C@H](C)[C@H]1CC[C@@H](c2ccnc3ccc(F)cc32)CC1)c1ccccc1` [Example 8, (S)-N-((R)-1-((1s,4S)-4-(6-fluoroquinolin-4-yl)cyclohexyl)ethyl)-2-phenylpropanamide], the IC50 was under 1000 nM.
